US11753413B2, “Substituted pyrrolo[2,1-f][1,2,4]triazine compounds as JAK2 V617F inhibitors” (Incyte Corporation, priority 2020, dated 2023)

What was measured:
[1] = molecular target: T1, pseudo-kinase domain (JH2) of human V617F mutant JAK2 (Homo sapiens, UniProt O60674, F794H/V617F/W659A/W777A); experiment: JAK2 LanthaScreen JH2-V617F Binding Assay; settings: read-out: JH2 BIND V617F
T1 construct: JH2, amino-acids 536-812 with 3 surface mutations; His (C); purchased BPS Bioscience 79498; host or cells: baculovirus expression system
T1 sequence (O60674 536-812 V617F/W659A/W777A/F794H): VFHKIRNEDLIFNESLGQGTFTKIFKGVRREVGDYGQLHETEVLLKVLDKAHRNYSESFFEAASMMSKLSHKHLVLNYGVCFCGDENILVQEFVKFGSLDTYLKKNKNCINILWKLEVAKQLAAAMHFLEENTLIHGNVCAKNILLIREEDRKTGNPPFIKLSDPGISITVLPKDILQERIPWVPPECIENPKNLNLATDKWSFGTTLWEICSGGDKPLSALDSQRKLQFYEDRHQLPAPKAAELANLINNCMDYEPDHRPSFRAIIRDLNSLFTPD
Description: Example C. JAK2 LanthaScreen JH2-V617F Binding Assay
(§1) JAK2 JH2-V617F binding assay utilizes pseudo-kinase domain (JH2, amino-acids 536-812 with 3 surface mutations W659A, W777A, F794H) of human V617F mutant JAK2 expressed as C-terminal His-Avi-tagged, biotinylated protein in a baculovirus expression system (BPS Bioscience, Catalog #79498). The assay was conducted in black 384-well polystyrene plates in a final reaction volume of 20 μL. JAK2 JH2-V617F (0.26 nM) was incubated with compounds (100 nL serially diluted in DMSO) in the presence of 50 nM Fluorescent JAK2-JH2 Tracer (MedChem Express Catalog #HY-102055) and 0.25 nM Streptavidin-Tb cryptate (Cisbio Part #610SATLB) in assay buffer (50 mM Tris, pH=7.5, 10 mM MgCl2, 0.01% Brij-35, 0.1% BSA, 1 mM EGTA, 5% Glycerol and 5 mM DTT). Non-specific binding was accessed in the presence of 2 mM ATP. After incubation for 1 hour at 25° C., LanthaScreen signals were read on a PHERAstar FS plate reader (BMG LABTECH). Data was analyzed with IDBS XLfit and GraphPad Prism 5.0 software using a four parameter dose response curve to determine IC50 for each compound.

[2] = molecular target: T2, pseudo-kinase domain (JH2) of human Wild Type JAK2 (Homo sapiens, UniProt O60674, F794H/W659A/W777A); experiment: JAK2 LanthaScreen JH2-WT Binding Assay; settings: read-out: JH2 BIND WT
T2 construct: JH2, amino-acids 536-812 with 3 surface mutations; His (C); purchased BPS Bioscience 79463; host or cells: baculovirus expression system
T2 sequence (O60674 536-812 W659A/W777A/F794H): as the sequence (O60674 536-812 V617F/W659A/W777A/F794H) above, with F82V counted along it
Description: Example B. JAK2 LanthaScreen JH2-WT Binding Assay
as §1, with “JH2-WT” for “JH2-V617F”, “Wild Type” for “V617F mutant”, “#79463).” for “#79498).”, “JH2-WT (0.145” for “JH2-V617F (0.26”

[3] = molecular target: T3, catalytic domain (JH1) of human JAK2 (Homo sapiens, UniProt O60674); experiment: JAK2 HTRF Enzyme Activity Assay; assay type: biochemical; parameters: JH1, amino acids 808-1132; His (N); purchased BPS Bioscience 40450; host or cells: baculovirus expression system; settings: ATP 30 μM or 1 mM (not given), read-out: ENZ
Description: Example D. JAK2 HTRF Enzyme Activity Assay
JAK2 enzyme activity assays utilize catalytic domain (JH1, amino acids 808-1132) of human JAK2 expressed as N-terminal His-tagged protein in a baculovirus expression system (BPS Bioscience, Catalog #40450). The assays was conducted in black 384-well polystyrene plates in a final reaction volume of 20 μL. JAK2 (0.015 nM) was incubated with compounds (100 nL serially diluted in DMSO) in the presence of ATP (30 μM or 1 mM) and 500 nM Biotin-labeled EQEDEPEGDYFEWLE (SEQ ID NO.: 1) peptide (BioSource International, custom synthesis) in assay buffer (50 mM Tris, pH=7.5, 10 mM MgC2, 0.01% Brij-35, 0.1% BSA, 1 mM EGTA, 5% Glycerol and 5 mM DTT) for 60 minutes at 25° C. The reactions were stopped by the addition of 10 μL of detection buffer (50 mM Tris, pH 7.8, 0.5 mg/mL BSA, 150 mM NaCl), supplemented with EDTA, LANCE Eu-W1024 anti-phosphotyrosine (PY20), (PerkinElmer, Catalog #AD0067) and Streptavidin SureLight APC (PerkinElmer Catalog #CR130-100), for a final concentration of 15 mM, 1.5 nM and 75 nM, respectively. HTRF signals were read after 30 minutes incubation at room temperature on a PHERAstar FS plate reader (BMG LABTECH). Data was analyzed with IDBS XLfit and GraphPad Prism 5.0 software using a four parameter dose response curve to determine IC50 for each compound.
Target sequence in this assay (O60674 808-1132): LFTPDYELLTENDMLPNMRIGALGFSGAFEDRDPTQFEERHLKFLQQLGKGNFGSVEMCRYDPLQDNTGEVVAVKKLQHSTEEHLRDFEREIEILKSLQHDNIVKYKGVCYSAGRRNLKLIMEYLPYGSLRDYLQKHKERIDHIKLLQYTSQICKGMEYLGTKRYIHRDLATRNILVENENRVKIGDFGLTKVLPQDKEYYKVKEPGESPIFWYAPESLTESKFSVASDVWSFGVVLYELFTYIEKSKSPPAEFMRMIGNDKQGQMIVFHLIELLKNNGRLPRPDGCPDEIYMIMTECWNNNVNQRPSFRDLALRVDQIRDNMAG

[4] = molecular target: T3, catalytic domain (JH1) of human JAK2; experiment: JAK2 LanthaScreen JH1 Binding Assay; parameters: JH1, amino acids 826-1132; FLAG (N); purchased Carna Biosciences 08-445-20N; host or cells: baculovirus expression system; settings: read-out: JH1 BIND
Description: Example A. JAK2 LanthaScreen JH1 Binding Assay
JAK2 JH1 binding assay utilizes catalytic domain (JH1, amino acids 826-1132) of human JAK2 expressed as N-terminal FLAG-tagged, biotinylated protein in a baculovirus expression system (Carna Biosciences, Product #08-445-20N). The assay was conducted in black 384-well polystyrene plates in a final reaction volume of 20 μL. JAK2 JH1 (1.5 nM) was incubated with compounds (100 nL serially diluted in DMSO) in the presence of 50 nM fluorescent JAK2-JH1 tracer and 0.5 nM Streptavidin-Tb cryptate (Cisbio Part #610SATLB) in assay buffer (50 mM Tris, pH=7.5, 10 mM MgCl2, 0.01% Brij-35, 0.1% BSA, 1 mM EGTA, 5% Glycerol and 5 mM DTT). Non-specific binding was accessed in the presence of 2 mM ATP. After incubation for 2 hours at 25° C., LanthaScreen signals were read on a PHERAstar FS plate reader (BMG LABTECH). Data was analyzed with IDBS XLfit and GraphPad Prism 5.0 software using a four parameter dose response curve to determine IC50 for each compound.
Target sequence in this assay (O60674 826-1132): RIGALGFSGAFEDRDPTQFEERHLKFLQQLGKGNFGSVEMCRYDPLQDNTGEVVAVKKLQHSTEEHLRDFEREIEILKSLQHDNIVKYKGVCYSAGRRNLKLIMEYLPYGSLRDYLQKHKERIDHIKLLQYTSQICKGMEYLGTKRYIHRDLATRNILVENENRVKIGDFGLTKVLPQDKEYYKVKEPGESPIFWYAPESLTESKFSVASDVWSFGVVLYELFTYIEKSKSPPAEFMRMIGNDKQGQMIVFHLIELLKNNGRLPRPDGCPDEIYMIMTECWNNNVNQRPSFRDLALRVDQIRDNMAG

| SMILES | IC50 [1] [nM] | IC50 [2] [nM] | IC50 [3] [nM] | IC50 [4] [nM] |
| --- | --- | --- | --- | --- |
| CCS(=O)(=O)Nc1ccc(Cn2cc(-c3ccn4nc(NC(=O)C5CC5)nc(Nc5cccc(C(F)(F)F)c5OC)c34)cn2)cc1 [Example 1, N-(5-(1-(4-(Ethylsulfonamido)benzyl)-1H-pyrazol-4-yl)-4-((2-methoxy-3-(trifluoromethyl)phenyl)amino)pyrrolo[2,1-f][1,2,4]triazin-2-yl)cyclopropanecarboxamide] | ≤ 100 | ≤ 100 | > 10000 | > 10000 |
| COc1c(Nc2nc(NC(=O)C3CC3)nn3ccc(-c4cnn(Cc5ccc(NS(=O)(=O)C6CC6)cc5)c4)c23)cccc1C(F)(F)F [Example 2, N-(5-(1-(4-(Cyclopropanesulfonamido)benzyl)-1H-pyrazol-4-yl)-4-((2-methoxy-3-(trifluoromethyl)phenyl)amino)pyrrolo[2,1-f][1,2,4]triazin-2-yl)cyclopropanecarboxamide] | ≤ 100 | ≤ 100 | > 10000 | > 10000 |
| CCS(=O)(=O)Nc1ccc(Cn2cc(-c3ccn4nc(NC(=O)C5CC5)nc(Nc5cccc(-c6ncn(C)n6)c5OC)c34)cn2)cc1 [Example 3, N-(5-(1-(4-(Ethylsulfonamido)benzyl)-1H-pyrazol-4-yl)-4-((2-methoxy-3-(1-methyl-1H-1,2,4-triazol-3-yl)phenyl)amino)pyrrolo[2,1-f][1,2,4]triazin-2-yl)cyclopropanecarboxamide] | 100 to 500 | ≤ 100 | > 10000 | > 10000 |
| COc1c(Nc2nc(NC(=O)C3CC3)nn3ccc(-c4cnn(Cc5ccc(NS(C)(=O)=O)cc5)c4)c23)cccc1-c1ncn(C)n1 [Example 4, N-(4-((2-Methoxy-3-(1-methyl-1H-1,2,4-triazol-3-yl)phenyl)amino)-5-(1-(4-(methylsulfonamido)benzyl)-1H-pyrazol-4-yl)pyrrolo[2,1-f][1,2,4]triazin-2-yl)cyclopropanecarboxamide] | 100 to 500 | 100 to 500 | > 10000 | > 10000 |
| COc1c(Nc2nc(NC(=O)C3CC3)nn3ccc(-c4cnn(Cc5cccnc5)c4)c23)cccc1C(F)(F)F [Example 5, N-(4-((2-Methoxy-3-(trifluoromethyl)phenyl)amino)-5-(1-(pyridin-3-ylmethyl)-1H-pyrazol-4-yl)pyrrolo[2,1-f][1,2,4]triazin-2-yl)cyclopropanecarboxamide] | 1000 to 10000 | 1000 to 10000 | > 10000 | > 10000 |
| COc1c(Nc2nc(NC(=O)C3CC3)nn3ccc(-c4cnn(Cc5ccc(C(=O)O)cc5)c4)c23)cccc1C(F)(F)F [Example 6, 4-((4-(2-(Cyclopropanecarboxamido)-4-((2-methoxy-3-(trifluoromethyl)phenyl)amino)pyrrolo[2,1-f][1,2,4]triazin-5-yl)-1H-pyrazol-1-yl)methyl)benzoic acid] | ≤ 100 | ≤ 100 | 1000 to 10000 | 1000 to 10000 |
